Patent US5708063A, “Photochromic compound” (Tokuyama Corporation, priority 1993, dated 1998)
Each block holds one molecule with its values, some of them ahead of it.

What was measured:
Format in all cases: physicochemical
[1] = Fatigue life of fulgide/fulgimide and chromene compound in polymerized methacrylate plate (Example 15); conditions: for T1/2 of fulgide or fulgimide compound: 0.05 part
Description: (§1) […] The mixed solution was injected into a mold which was made of a glass plate and a gasket formed of an ethylene-vinyl acetate copolymer, and was heated to a temperature of 35° to 90° C. in an air oven over a period of 20 hours for polymerization. After the polymerization was over, the polymer was withdrawn from the glass plate of the mold.
(§2) The resulting polymerized plate was irradiated with sunlight for 10 minutes. On this occasion, a color tone of said plate was visually observed. In this polymerized plate, the fulgide or fulgimide compound and the chromene compound were measured for fatigue life in the same manner as in Example 9. Further, a color tone of the polymerized plate was visually observed in T1/2 (hrs.) of the fulgide or fulgimide compound.

[2] = Fatigue life of fulgide/fulgimide and chromene compound in polymerized plate with ultraviolet light stabilizer (Example 16)
[3] = Photochromic PMMA cast film: initial coloration density, maximum absorption wavelength and fatigue life in xenon fadeometer (Example 9); conditions: PMMA cast film 0.1 mm;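 on Initial color density: initial color density is an absorbance value so the % unit is wrong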
Description: The thickness of the cast film was adjusted to 0.1 mm.
(§3) T1/2 is defined as the time required for the color density to decrease to half of its initial value when the film is exposed to the fadeometer.

[4] = Durability of poly(allyl diglycol carbonate) lens impregnated with the compound in silicone oil, as in Example 9 (Example 10); design: Initial color density: unit not given here; conditions: silicone oil impregnation
Description: as §3
The solution was impregnated in the surface of a lens composed of poly(allyl diglycol carbonate) at 200° C. for 1 hour. The concentration of the solution was adjusted to 1.0×10^-4 mole/g.

[5] = Visual color tone of polymerized plate under sunlight (Example 15); conditions: 0.05 part
Description: as §1, §2

[6] = with chromenes 1/2 (0.015/0.015 part)

Molecule: 7'-methoxyspiro(bicyclo[3.3.1]nonane-9,2'-(2H)benzo(f)-chromene) [Chromene compound 2]
T1/2 of chromene compound ([1]; 0.03 part, with fulgide/fulgimide 2 (0.05 part)): 8.75 days
T1/2 of chromene compound ([1]; 0.03 part, with fulgide/fulgimide 21 (0.05 part)): 7.08 days
T1/2 of chromene compound ([1]; 0.03 part, with fulgide/fulgimide 36 (0.05 part)): 7.92 days
T1/2 of chromene compound ([1]; 0.03 part, with fulgide/fulgimide 45 (0.05 part)): 7.29 days
T1/2 of chromene compound ([1]; 0.03 part, with fulgide/fulgimide 54 (0.05 part)): 6.88 days
T1/2 of chromene compound ([1]; 0.04 part chromene 2, with fulgide/fulgimide 2/48 (0.025/0.025 part)): 7.92 days
T1/2 of chromene compound ([2]; 0.04 part, fulgimide 2 (0.05), Tiniuvin 765 (0.1)): 14.2 days
T1/2 of chromene compound ([2]; 0.04 part, fulgimide 2 (0.05), Tinuvin 765 (0.2)): 14.6 days
T1/2 of chromene compound ([2]; 0.04 part, fulgimide 2 (0.05), Tinuvin 765 (0.5)): 16.7 days
T1/2 of chromene compound ([2]; 0.04 part, fulgimide 2 (0.05), Tinuvin 765 (1.0)): 20 days
T1/2 of chromene compound ([2]; 0.04 part, fulgimide 2 (0.05), Tinuvin 765 (2.0)): 20.8 days
T1/2 of chromene compound ([2]; 0.04 part, fulgimide 2 (0.05), Tinuvin 765 (10.0)): 21.7 days
T1/2 of chromene compound ([2]; 0.04 part, fulgimide 2 (0.05), UV Chek AM105 (0.7)): 18.3 days
T1/2 of chromene compound ([2]; 0.05 part, fulgimide 2 (0.05), LA-63 (0.5)): 20 days
T1/2 of chromene compound ([2]; 0.05 part, fulgimide 48 (0.05), Cyasorb UV 1084 (0.6)): 17.9 days

Molecule: CC1CC1C1=C2C(=O)N(CCCCCc3cccc4ccccc34)C(=O)C2C2(c3sc4c(c31)CCCC4)C1CC3CC(C1)CC2C3 (stereo not drawn) [(48)]
T1/2 of fulgide or fulgimide compound ([1]; with chromene 1 (0.04 part)): 6.42 days
T1/2 of fulgide or fulgimide compound [1, 6]: 6.42 days
λmax ([3]; xenon light): 588 nm
Initial color density ([3]; xenon light, no stabilizer): 0.75%
T1/2 ([3]; time for color density to fall to half of initial value, xenon fadeometer, no stabilizer): 2.58 days
λmax [4]: 590 nm
Initial color density ([4]; 1.0×10^-4 mole/g): 0.67
T1/2 ([4]; xenon fadeometer): 2.71 days
Color tone in T0 ([5]; with chromene 1 (0.04 part)): gray
Color tone in T1/2 ([5]; with chromene 1 (0.04 part)): gray
Color tone in T0 [5, 6]: gray
Color tone in T1/2 [5, 6]: gray
T1/2 of fulgide or fulgimide compound ([2]; 0.05 part, chromene 1 (0.04), Spinuvex A-36 (0.6)): 17.9 days
T1/2 of fulgide or fulgimide compound ([2]; 0.05 part, chromene 2 (0.05), Cyasorb UV 1084 (0.6)): 17.5 days
T1/2 of fulgide or fulgimide compound ([2]; 0.05 part, chromene 3 (0.1), Tinuvin 765 (0.7)): 18.8 days
T1/2 of fulgide or fulgimide compound ([2]; 0.05 part, chromene 4 (0.1), UV Check AM101 (0.4)): 18.3 days
T1/2 of fulgide or fulgimide compound ([2]; 0.05 part, chromene 5 (0.05), Tinuvin 622 (0.7)): 18.8 days

Molecule: CCCCCCCCOc1cccc2c3c(ccc12)C=CC(C)(C)O3 [Chromene compound 5, 2,2-dimethyl-7-octoxy[2H]benzo[h]chromene]
T1/2 of chromene compound ([1]; 0.03 part, with fulgide/fulgimide 17 (0.05 part)): 5 days
T1/2 of chromene compound ([1]; 0.04 part, with fulgide/fulgimide 15 (0.05 part)): 8 days
T1/2 of chromene compound ([1]; 0.07 part, with fulgide/fulgimide 46 (0.05 part)): 6.46 days
T1/2 of chromene compound ([2]; 0.05 part, fulgimide 2 (0.05), Mark LA-87 (0.5)): 18.8 days
T1/2 of chromene compound ([2]; 0.05 part, fulgimide 48 (0.05), Tinuvin 622 (0.7)): 17.9 days

More lines, now with the values ahead:

T1/2 of chromene compound ([1]; 0.03 part, with fulgide/fulgimide 8 (0.05 part)): 7.08 days
T1/2 of chromene compound ([1]; 0.03 part, with fulgide/fulgimide 30 (0.05 part)): 7.08 days
T1/2 of chromene compound ([1]; 0.04 part chromene 1, with fulgide/fulgimide 2/48 (0.025/0.025 part)): 7.92 days
T1/2 of chromene compound ([1]; 0.04 part, with fulgide/fulgimide 48 (0.05 part)): 6.17 days
T1/2 of chromene compound ([2]; 0.03 part, fulgimide 2 (0.05), Irgastab 2002 (0.5)): 20 days
T1/2 of chromene compound ([2]; 0.04 part, fulgimide 48 (0.05), Spinuvex A-36 (0.6)): 17.9 days
Molecule: C1=CC2(CC3CCC2C3)Oc2c1ccc1ccccc21 (stereo not drawn) [Chromene compound 1, Spiro(norbornane-2,2'-(2H)benzo(h)-chromene)]

T1/2 of chromene compound ([1]; 0.08 part, with fulgide/fulgimide 10 (0.05 part)): 6.25 days
T1/2 of chromene compound ([1]; 0.08 part, with fulgide/fulgimide 44 (0.05 part)): 6.67 days
T1/2 of chromene compound ([2]; 0.01 part, fulgimide 2 (0.05), Cyasorb 944 (0.5)): 16.7 days
T1/2 of chromene compound ([2]; 0.1 part, fulgimide 48 (0.05), Tinuvin 765 (0.7)): 17.5 days
Molecule: CC1=CC2(Oc3ccc4ccccc4c31)C1CCCC2CCC1 (stereo not drawn) [Chromene compound 3, 4'-methylspiro[bicyclo[3.3.1]nonane-9,2'-[2H]benzo[f]chromene]]

T1/2 of chromene compound ([1]; 0.04 part, with fulgide/fulgimide 24 (0.05 part)): 6.33 days
T1/2 of chromene compound ([1]; 0.08 part, with fulgide/fulgimide 12 (0.05 part)): 7.5 days
T1/2 of chromene compound ([2]; 0.01 part, fulgimide 2 (0.05), LS-2626 (0.4)): 20 days
T1/2 of chromene compound ([2]; 0.1 part, fulgimide 48 (0.05), UV Check AM101 (0.4)): 17.9 days
Molecule: CC1=Cc2c(ccc3ccccc23)OC12CC1CCC2C1 (stereo not drawn) [Chromene compound 4, 3'-methylspiro[norbornane-2,2'-[2H]benzo-[f]chromene]]
